Assay [1] relates to GABAARs. Put plainly: Whole-cell patch-clamp, cultured hippocampal neurons 24 h after EtOH/DHM exposure. It is filed as cell-based, rat. The note with it: 24 h withdrawal. The procedure:
Control neurons were treated with corresponding vehicle as same procedure as EtOH-treated neurons. The concentration of 60 mM EtOH was selected in view of prior experiments. See Liang J et al (2007). Specifically, the concentration of 60 mM EtOH used to treat cultured neurons was chosen to match blood levels measured in adult rats after intoxication with gavage of 5 g/kg, which produced about 60 mM blood peak plasma [EtOH] lasting for about 2 to 3 hr and induced significant plasticity in GABAARs and tolerance.
Then, immediately before electrophysiological recording, cells grown on coverslips were transferred to a perfusion chamber (Warner Instruments) and visualized with an inverted microscope (TE200, Nikon). Whole-cell patch-clamp recordings were obtained from cultured neurons under voltage-clamp mode at room temperature (22-25° C.), at a holding potential of −70 mV. Cells were perfused with an extracellular solution (137 mM NaCl, 5 mM KCl, 2 mM CaCl2, 1 mM MgCl2, 20 mM glucose and 10 mM HEPES (310-320 Osm, pH adjusted to 7.40 with NaOH)). Glass pipettes were filled with the same internal solution as that in slice recordings, with an input resistance of 4-7 MΩ. GABAAR-mediated mIPSCs were recorded using the same pharmacological method as mentioned above. […] Electrical signals were amplified using a Multiclamp 200 B amplifier (Molecular Devices, USA). After establishing the whole-cell configuration, at least 10 min were allowed to elapse before the application of drug to allow the membrane patch to stabilize and exchange of ions between the recording electrode and the cytosol to occur. Data were acquired with pClamp software (Version 10.0, Molecular Devices, USA), digitized at 20 kHz (Digidata 1440A, Molecular Devices), and analyzed using the Clampfit software (Version 10.0, Molecular Devices) and the Mini Analysis Program (versions 6.0.7, Synaptosoft, Decatur, Ga.) using methods known in the art. See Hamann M, et al. (2002) Neuron 33(4):625-633; Stell B M and Mody I (2002) J Neurosci 22(10): RC223; and Liang (2007).
(In general: In patch-clamp work, channel activity is measured electrically.)

The test system of assay [2] is benzodiazepine site of GABAARs. Put plainly: [3H]flunitrazepam binding in rat cortical membrane homogenates. The procedure:
Standard procedures for preparation of rat cortical membranes for radioligand binding assays were conducted as previously described with modifications in speed and number of centrifugation and washes, and buffer compositions. […] Naïve rat cortex was dissected from brain and homogenized in 0.32 M sucrose, 10 mM HEPES buffer (pH 7.4), and centrifuged at 650×g, 4° C. The subsequent supernatant was centrifuged at 150,000×g to collect the desired membrane-containing pellet. The pellet was washed and centrifuged two more times, first using ice-cold water and second using membrane buffer containing 50 mM KH2PO4, 1 mM EDTA, 2 mM benzamidine HCl, 0.5 mM DTT, 0.1 mM benzethonium HCl, 0.01% bacitracin, 0.2 PMSF (pH 7.4), and the resulting pellet was frozen. On the day of binding assay, the pellet was homogenized in assay buffer containing 50 mM KH2PO4, 1 mM EDTA, 200 mM KCl (pH 7.4) and centrifuged, and resuspended in fresh assay buffer to a final protein concentration of 1 mg/ml. […] Specific binding was defined as the total amount bound (zero unlabeled ligand) minus the binding in the presence of 10 μM final concentration flurazepam (Sigma). Data was analyzed with GraphPad Prism 4.0 Software (San Diego, Calif.) to determine IC50 (One-site competition equation) and Hill slope (Sigmoidal Dose-Response equation). Experiments were conducted in triplicate.

For assay [3], the system named is GABAAR α4 subunit. Put plainly: Western blot of hippocampal tissue after 48 hr withdrawal. It is filed as in vivo, rat. The procedure:
Parallel Western blots from rat hippocampus were examined to determine whether EtOH induced changes in total protein of GABAAR α4 subunits. Hippocampal tissues from rats were lysed in RIPA-buffer containing 1% Triton X-100, 0.1% sodium dodecyl sulfate (SDS), 50 mM Na3PO4, 150 mM NaCl, 2 mM EDTA, 50 mM NaF, 10 mM sodium pyrophosphate, 1 mM sodium orthovanadate, 1 mM phenylmethylsulfonyl fluoride (PMSF) and Complete protease inhibitor cocktail (Roche). The lysate was centrifuged for 15 min (14,000×g, 4° C.) and the supernatant collected for Western blot analysis. Western blots were performed using rabbit anti-GABAAR α4 (aa 379-421) and mouse anti-β-actin (Sigma) followed by HRP-conjugated secondary antibodies. Bands were detected using ECL detection kit (Amersham) and analyzed by densitometric measurements using ImageQuant 5.2 (Molecular Dynamics). Bands were stripped with buffer containing 62.5 mM Tris-HCl, 100 mM β-mercaptoethanol and 2% SDS (pH 6.7) and reprobed several times. Protein concentrations were determined with BCA Protein Assay Kit (Pierce) according to the manufacturer instructions.
The total protein content of GABAAR α4 subunit in hippocampus 48 hr after the above 4 treatments was assayed.
In general terms: Immunoblotting shows a protein as a band on a membrane.

Where [4] appears, read: neurons treated with EtOH 60 mM + DHM.

Here are results for 1 compound from patent US20130053435A1, “Methods of Treating Alcohol Intoxication, Alcohol Use Disorders and Alcohol Abuse Which Comprises the Administration of Dihydromyricetin” (priority 2011, published 2013).

The IC50 is the point on the concentration scale where inhibition reaches its midpoint.

For `O=C1c2c(O)cc(O)cc2O[C@H](c2cc(O)c(O)c(O)c2)[C@H]1O` [DHM, (2R,3R)-3,5,7-trihydroxy-2-(3,4,5-trihydroxyphenyl)-2,3-dihydrochromen-4-one], in assay [1] (DHM alone exposure), the “GABAAR function after exposure/withdrawal” value is “did not alter GABAAR function”. Also, in assay [1] (setting [4]), the “Itonic magnitude after acute EtOH (60 mM)” value worked out at 25.2±1.2 pA, the “averaged Itonic magnitude” value came to 11.2±0.6 pA and the “mIPSC potentiation by EtOH” value came to 8.3±9.4%. Besides, in assay [2], the “concentration at which significant inhibition of [3H]flunitrazepam binding starts” value worked out at 0.3 µM. In addition, the IC50 in assay [2] ([3H]flunitrazepam 1 nM, rat cortex membranes, read-out: IC50, inhibition of [3H]flunitrazepam binding) was determined as 4.36 µM. Moreover, in assay [2] (comparative experiments), the “binding to GABAARs in [3H]flunitrazepam binding assay” value is given as “bind GABAARs”. The “total α4 subunit level” value in assay [3] (DHM group) is 88.3±10.3 % of control. Further, the “total α4-protein level” value in assay [3] (EtOH+DHM group) is 93.0±21.0 % of control.
